According to patent publication US20090074831A1, “LOCAL […] […] OF mTOR INHIBITORS IN COMBINATION WITH PEROXISOME PROLIFERATORS-ACTIVATED RECEPTOR STIMULATORS” (priority 2007, published 2009):

Assays:
Patients [1] = assay: IVUS substudy of the MVP restenosis trial; type: in vivo, human
Source text: Serial intravascular ultrasound (IVUS) examinations have been performed in a consecutive series of patients involved in the MVP trial. By providing tomographic views of coronary arteries with high resolution, IVUS allows quantitative assessment of changes in arterial lumen and wall dimensions. We were therefore able in this study to determine the pathophysiology of coronary restenosis after balloon angioplasty in patients systematically undergoing follow-up IVUS examination and determine the effect of probucol on tissue hyperplasia and vascular remodeling after coronary angioplasty. The present invention concerns the IVUS substudy from the MVP restenosis trial. MVP was a double-blind placebo-controlled randomized clinical trial with four study groups. The protocol was approved by the Montreal Heart Institute institutional review board. The MVP study design, inclusion and exclusion criteria have been previously described (N Engl J Med 1997; 365-372). Briefly, patients referred for elective coronary angioplasty were evaluated at least 30 days prior to their scheduled procedure. Eligible patients were asked to provide written informed consent. […] The sequence of contrast injections with the exact degree of angulation was recorded and used for every angiogram. Coronary arteriograms (pre-, post-procedure, and final follow-up) were analyzed together using the Coronary Measurement System (CMS), as previously reported. […] Patients were readmitted for follow-up coronary angiography at five to seven months. […] IVUS imaging was monitored by an experienced cardiologist, but the angioplasty operator was blinded to ultrasound results to avoid altering standard balloon angioplasty practice. […] One angiographic view was recorded on videotape before beginning pullback of the IVUS catheter. […] Simultaneous high-resolution fluoroscopic images were recorded on the IVUS imaging screen during pullbacks to constantly know the location of the IVUS transducer. […]

Patients [2] = assay: MultiVitamins and Probucol (MVP) randomized clinical trial, angiographic and clinical endpoints; type: in vivo, human
Source text: It was not possible to determine with angiography alone whether probucol acted via inhibition of tissue hyperplasia or improvement in vascular remodeling. […] In addition, the invention enables the skilled practitioner to use probucol in conjunction with other percutaneous coronary interventions such as stenting if it is deemed appropriate.
The present invention concerns the IVUS substudy from the MVP restenosis trial. MVP was a double-blind placebo-controlled randomized clinical trial with four study groups. The protocol was approved by the Montreal Heart Institute institutional review board. The MVP study design, inclusion and exclusion criteria have been previously described (N Engl J Med 1997; 365-372). Briefly, patients referred for elective coronary angioplasty were evaluated at least 30 days prior to their scheduled procedure. Eligible patients were asked to provide written informed consent. Patients were eligible if they were scheduled to undergo standard balloon angioplasty on at least one native coronary artery and had at least one de novo target lesion with luminal narrowing of fifty percent or more by caliper measurements.
Beginning thirty days prior to scheduled angioplasty, patients were randomly assigned to receive either probucol alone, multivitamins alone, the combination of probucol and multivitamins, or placebo. Probucol 500 mg or matched placebo was administered twice daily. The multivitamin complex, consisting of vitamin E 700 IU, vitamin C 500 mg and beta-carotene 30,000 IU, or matched placebo was also administered in one tablet twice daily. All patients received an extra dose of probucol 1000 mg and/or vitamin E 2000 IU and/or matched placebos twelve hours before angioplasty, according to randomization assignment. […] All patients received aspirin 325 mg daily started at least thirty days before procedure and continued for the study period. Balloon angioplasty was performed according to standard techniques. Intracoronary nitroglycerin (0.3 mg) was given for each target artery for both pre- and post-dilatation angiography and at follow-up. The sequence of contrast injections with the exact degree of angulation was recorded and used for every angiogram. Coronary arteriograms (pre-, post-procedure, and final follow-up) were analyzed together using the Coronary Measurement System (CMS), as previously reported. Patient follow-up included clinical evaluation, exercise treadmill testing, blood chemistry, pill count and drug level measurements, and dietary assessment and intervention. Patients were readmitted for follow-up coronary angiography at five to seven months. […]

LDL = assay: ex vivo copper-induced LDL peroxidation, monitoring of diene conjugates (lag phase); parameters: species or system human; settings: treatment for one month; preliminary results
Source text: Dietary intervention and smoking habits were similar in all groups. Probucol may simply be a more powerful antioxidant than the combination of vitamins. To this regard, preliminary results from the continuous spectrophotometric monitoring of diene conjugates in LDL after the addition of copper ions to the isolated lipoprotein ex vivo (Free Radic Res Commun 1989; 6:67-75) of MVP patients are noteworthy.

[3] = drug concentration in liquid formulations (liquid chromatography / HPLC assay); type: physicochemical; settings: 4 mg/ml PEG 200 formulation
Source text: In accordance with exemplary embodiments of the present invention, a series of liquid formulations were developed for the local or regional delivery of water insoluble compounds such as sirolimus and its analogs, including CCl-779, ABT-578 and everolimus, through weeping balloons and catheter injection needles. […] These liquid formulations increase the apparent solubility of the pharmacologically active but water insoluble compounds by two to four orders of magnitude as compared to the solubility limits of the compounds in water. These liquid formulations rely on the use of a very small amount of organic solvents such as Ethanol (typically less than two percent) and a larger amount of safe amphiphilic (of or relating to a molecule having a polar, water soluble group attached to a non-polar, water insoluble […]) excipients such as polyethylene glycol (PEG 200, PEG 400) and vitamin E TPGS to enhance the solubility of the compounds. These liquid formulations of highly water insoluble compounds are stable and readily flowable at room temperature. Certain excipients, such as Vitamin E TPGS and BHT may be utilized to enhance the storage stability of sirolimus compounds through their anti-oxidation properties. […]

| SMILES | Lumen area (mm^2), Follow-up Post PTCA (change) (Patients [1]; efficacy analysis in compliant patients) | Lumen area (mm^2), Follow-up Post PTCA (change) (Patients [1]; per segment analysis, Placebo −1.21 ± 1.88) | increase in vessel enlargement (Patients [1]; probucol only versus placebo (EEM 1.74 versus 0.29 mm^2)) | patients in whom restenosis still occurred (Patients [2]; probucol alone) | reduction in restenosis rate per segment compared to placebo (Patients [2]; probucol given alone) | reduction in the need for repeat angioplasty compared to placebo (Patients [2]; probucol given alone, at 6 month) | reduction in angiographic lumen loss compared to placebo (Patients [2]; probucol given alone, thirty days before and six months after angioplasty) | protection against LDL oxidation (lag phase for LDL peroxidation) (LDL) | concentration relative to the solubility of sirolimus in water [3] |
| --- | --- | --- | --- | --- | --- | --- | --- | --- | --- |
| CC(C)(Sc1cc(C(C)(C)C)c(O)c(C(C)(C)C)c1)Sc1cc(C(C)(C)C)c(O)c(C(C)(C)C)c1 [Probucol Alone, 4,4′-([1-methylethylidene)bis(thio)]bis-[2,6-bis(1,1-dimethylethyl)phenol]] | −0.15 ± 1.70 mm^2 | −0.15 ± 1.70 mm^2 | seven hundred-thirty | over twenty | forty-seven | fifty-eight | sixty-eight | significantly greater protection against LDL oxidation than vitamins alone or the combination of probucol and vitamins | – |
| CO[C@H]1C[C@@H]2CC[C@@H](C)[C@@](O)(O2)C(=O)C(=O)N2CCCC[C@H]2C(=O)O[C@H]([C@H](C)C[C@@H]2CC[C@@H](O)[C@H](OC)C2)CC(=O)[C@H](C)/C=C(\C)[C@@H](O)[C@@H](OC)C(=O)[C@H](C)C[C@H](C)/C=C/C=C/C=C/1C [rapamycin] | – | – | – | – | – | – | – | – | four hundred to about one thousand |
